For data set [1], the system named is Cryptococcus fragicola. Description: Yeast agar-assay on fermented milk plates (Example 6). In kind it is cell-based. Conditions: added manganese on fermented milk agar plates. As for the experimental part:
Influence of manganese on the inhibitory effect against different molds were evaluated. An agar-assay resembling the manufacturing process and production of fermented milk products was used. L. rhamnosus and L. paracasei were used together as manganese scavenging agents. Reduced-fat (1.5% w/v) homogenized milk was heat-treated at 90±1° C. for 20 min and cooled immediately. A commercial starter culture (Streptococcus thermophilus and Lactobacillus delbrueckii subsp. bulgaricus) was inoculated at 0.02% (v/w) in 3 L buckets. […] The fermented milk products were divided into 200 mL bottles and cooled down. […] All the fermented milk samples were warmed to a temperature of 40° C. and added 40 ml of a 5% sterile agar solution that had been melted and cooled down to 60° C. This solution of fermented milk and agar was then poured into sterile Petri dishes and the plates were dried in a LAF bench for 30 min. Three target contaminants, including two Debaryomyces hansenii (strain 1 and strain 2) and one Cryptococcus fragicola were spotted in concentrations of 10^3, 10^2 and 10^1 CFU/spot. Plates were incubated at 7±1° C. and regularly examined for the growth of yeast.

For data set [2], the system named is Debaromyces hansenii. The protocol: Absorbance at 600 nm was measured after 7 days of incubation at 17° C., compared to reference. Samples made in triplicate.
Two concentrations of manganese were used, 6 ppm and 0.6 ppm, in example 8.

For data set [3], the system named is Debaryomyces hansenii. Conditions: chemically defined medium, pH 6.5 or 4.5; 6 days at 17° C.; FIGS. 1 and 2.
Procedure: Two D. hansenii isolated from spoiled yogurt (strain 1) and quark (strain 2), respectively, were used.
The minimal medium contains biotin 2 μg/L, calcium pantothenate 400 μg/L, folic acid 2 μg/L, inositol 2 mg/L, nicotinic acid 400 μg/L, p-amino benzoic acid 200 μg/L, pyridoxine 400 μg/L, riboflavin 200 μg/L, thiamine 400 μg/L, Boric acid 500 μg/L, copper sulfate 40 μg/L, potassium iodide 100 μg/L, ferric chloride 200 μg/L, sodium molybdate 200 μg/L, zinc sulfate 400 μg/L, potassium phosphate monobasic 0.5 g/L, potassium phosphate dibasic 0.5 g/L, magnesium sulfate 0.5 g/L, sodium chloride 0.1 g/L, calcium chloride 0.2 g/L, glucose 20 g/L, ammonium sulfate 5 g/L.
Two different pH were tested: pH 6.5 and 4.5.
The strains were inoculated to 150 μl of the different medium in a 96 well plate. The plates were incubated at 17° C. for several days and the growth of the yeast strains was followed by measuring absorbance at 600 nm in a plate reader.
For data set [4], the system named is Debaryomyces hansenii. Briefly: Yeast growth in yogurt with EDTA or scavenger (Example 9). Conditions: added to reference yogurt; FIG. 14. It counts as cell-based. The protocol:
The concentration of EDTA ranges from 14 mg/ml (top row), 7.10 mg/ml, 3.55 mg/ml, 1.78 mg/ml, 0.89 mg/ml, 0.44 mg/ml, 0.22 mg/ml to 0 mg/ml (bottom row).

Where two headings read alike, the source gives them in different places.

`[Mn+2]` [manganese]: the “Manganese concentration that seemed to inhibit the growth” value in data set [1] is 6 ppm. In data set [2] (Example 8), the “manganese concentration with inhibitory/toxic effect on yeast growth” value stood at 6 ppm. Also, the “manganese concentration below which growth is inhibited” value in data set [3] is on record as < 0.01 ppm.
In the case of `O=C(O)CN(CCN(CC(=O)O)CC(=O)O)CC(=O)O` [EDTA, ethylenediaminetetraacetic acid], the “concentration at which cells stop growing (inhibitory effect)” value in data set [2] (FIG. 12, aqueous phase filtered with 1.2 μm filter, 7 days at 17° C.) turned out to be 0.05 mg/mL; in data set [2] (FIG. 13, aqueous phase filtered with 0.2 μm filter, absence of manganese (0.6 ppm)) it was 0.05 mg/mL. Moreover, the “effect on growth of adding 0.6 ppm of manganese together with 0.05 mg/ml EDTA” value in data set [2] (FIG. 13, 0.05 mg/ml EDTA + 0.6 ppm manganese) is recorded as “restores the growth”. In addition, the “concentration reproducing the inhibition of manganese scavenging agent 1” value in data set [4] is “up to 0.89 mg/ml”.

(Values after US11707070B2, “Inhibition of fungal growth by manganese depletion” (Chr. Hansen A/S, priority 2018, dated 2023).)
